Results as given in patent publication US20170343554A1, “METHODS OF MEASURING ERBB SIGNALING PATHWAY ACTIVITY TO DIAGNOSE AND TREAT CANCER PATIENTS” (Celcuity LLC, priority 2014, published 2017).
Where two headings read alike, the source gives them in different places.

What was measured:
[1] = tested on: breast cancer patient cells; test: CELx Pathway Shutdown single drug tests, impedance biosensor CReMS (Example 4); format: cell-based, human; conditions: one patient breast cancer cell sample expected to be a responder (FIG. 8B)
Protocol: The physiologic change of the cells and drugs tested was measured with an impedance biosensor CReMS and the summary output from the CReMS is recorded in FIG. 4.
In those experiments involving a combination of drugs, the procedures described in Example 3 were utilized. The list of patient cells and the drug tested with the cells is characterized in FIG. 4.

[2] = tested on: BT474 breast cancer cell line cells; test: Cell attachment signal (CAS) diagnostic assay, impedance biosensor (Example 6); format: cell-based; conditions: lapatinib with NRG1, fulvestrant with estradiol
Protocol: (§1) The analyte of the diagnostic test used herein is the cell attachment signal (CAS) that viable patient cells generate, alone or in the presence of cell antagonists, when placed in the well of a microplate and analyzed with an impedance biosensor. For every test, the CAS is measured and analyzed for […] of patient cell samples. • 1) Patient cells only (C) • 2) Patient cells+pathway factor(s) (CF) • 3) Patient cells+pathway factor(s)+confirming agent (CCF)
(§2) To detect whether the signaling pathway is functioning normally, the signaling pathway in a patient's diseased cells are perturbed and the resulting activity is compared to the effect the perturbant has on the signaling pathway activity of their healthy cells or the effect of perturbant on the signaling pathway activity of healthy cells from a patient or patients known to be free of disease. The assay measures the change in CAS between the CF and C cells in a patient's healthy cells relative to the change in CAS between the CF and C cells in the diseased cells. Alternatively, the assay can measure the change in CAS between the CF and the C cells in a patient's diseased cells that can be compared to a known result from a patient or pool of patients known to be free of disease. Essentially, if the signaling pathways are abnormal, the CAS change between the healthy and diseased cells will be different. The measurement of change in CAS between CF and CCF diseased cells from a subject provides confirmation that the CF CAS represents activity of the signaling pathway of interest. In the case where CCF is not changed relative to CF, this would indicate that the signaling pathway activity in CF represents some other signaling pathway activity that is not related to the condition of interest. In these cases, the patient would not be considered to have the disease being analyzed.
(§3) Studies were performed confirming the ability of this cell analysis method to measure specific pathway activity in primary non-transformed malignant and healthy epithelial cells as well as cell lines. Representative data from these studies is shown in FIGS. 10 and 11 for two critical pathways involved in breast cancer, PI3K and ERα.

[3] = tested on: cells from two HER2 overexpressing breast cancer patients (Patient B1 and B4); test: CELx Pathway Shutdown test, impedance biosensor CReMS, EGF perturbation (Example 1); format: cell-based, human
Source text: The change in impedance for a particular well is proportional to the number of cells and type of attachment the cells have with the impedance microplate. Changes in impedance indicate a response to perturbation of these small cell populations.
Prior to addition to the impedance microplate, the cells were removed from their growth container with versene, counted, and re-suspended in media without serum or other growth factors.

[4] = tested on: cancer patients (Patients B1, B2, B4, C1, C2); conditions: cited from earlier work
[5] = tested on: Patient 54 primary breast cancer cells; test: Cell attachment signal (CAS) diagnostic assay, impedance biosensor (Example 6); format: cell-based, human; conditions: Patient 54 primary tumor cells, lapatinib with NRG1, fulvestrant with estradiol
Protocol: as §1, §2, §3

[6] = tested on: HER2 signaling pathway activity in viable breast cancer cells of non-overexpressed HER2 patients; test: CELx test of HER2 signaling pathway activity by CAS with perturbing and confirming agents (Example 7); format: cell-based, human; conditions: for % Attenuation of NRG1 Signal: non-overexpressing HER2, HER2-driven disease, clinically relevant single concentration; for attenuation of the NRG1 and EGF driven activity, comparison in words: five patients of Table 17, single concentration
Source text: Analyte and measurand: The analyte of the diagnostic test used herein is the cell attachment signal (CAS) that viable patient cells generate, alone or in the presence of specific cell signaling pathway perturbants, when placed in the well of an impedance biosensor microplate and continuously measured for electrical impedance. For every test, the CAS is continuously measured and used in the measurand algorithm for up to four portions of patient cell samples from the same patient. • 1. Patient cells only (C) • 2. Patient cells+perturbing pathway factor 1 (CF1) • 3. Patient cells+perturbing pathway factor 2 (CF2) (if necessary) • 4. Patient cells+perturbing pathway factor(s)+Confirming agent (CCF)
The CAS is quantified for each of the up to four portions of patient samples tested (C, CF1, CF2, CCF). To quantify the signaling pathway activity of a patient's diseased cells, the CAS measured in the CF1 and/or CF2 portions is compared to the CAS measured in the C portion. This enables determination of the change in CAS between the CF and C sample portions relative to the change in CAS between the CCF and CF sample portions to confirm how much of the change between CF and C is related to the signaling pathway of interest.
In using this confirming agent, the difference between the CAS of CF1 and/or CF2 and C can be correctly apportioned to HER2 participation. When this confirming agent is applied to cell samples before the perturbing agent, the perturbing agent is blocked from HER2-receptor-related activities thereby generating a CAS value for CCF below the CF1 and/CF2 CAS values by an amount proportional to the participation of the HER2 receptor in the CF1 and/or CF2 change relative to C.
Standard media based on DMEM/F12 without serum, with antibiotics (e.g. penicillin, streptomycin, amphotericin), and HEPES buffer were purchased and used as delivered from VWR (Radnor, Pa.) or Life Technologies (Grand Island, N.Y.).
The commercial-source cell lines were received on dry ice and cultured according to recommendation by the commercial provider. […] Prior to addition to the impedance microplate, the cells were removed from their growth container with trypsin/EDTA solution, counted, and re-suspended in media with antibiotics, without serum, or other growth factors.
The test procedure used (hereinafter referred to as CELx) comprised the following steps, all performed in 5% CO2, 85% humidity, at 37° C.: • 1. Cell Seeding: 180 uL aliquots containing 15,000 viable epithelial cells from each patient or cell line in mammary epithelial growth media with antibiotics, without serum, or other growth factors were distributed to each designated well (C, CCF, CF1, CF2) of an impedance microplate. Impedance was continuously measured throughout steps 2-4 described below. • 2. Confirming agent (20 uL) was added six hours after seeding to pre-specified CCF wells for each cell sample. […] Perturbing Factors were added (20 uL) 18 hours after seeding to pre-specified CF wells for each sample. Wells not receiving perturbing factor received media as control. • 4. Continuous impedance recordings were made for each test well for each patient typically for at least 15 hours after the perturbing agents were added.

[7] = tested on: cells from two breast cancer patients (Patients B1 and B2); test: CELx Anti-Proliferative test, impedance biosensor CReMS (Example 2); format: cell-based, human; conditions: for responsiveness, CReM output (cell index) compared to control cells: continuous recording 48-72 hours
Protocol: A CELx Anti-Proliferative test was performed using cells from two breast cancer patients (Patients B1 and B2) and the drug Paclitaxel. The physiologic change of the B land B2 cells during the test was measured with an impedance biosensor CReMS and the output from the CReMS is recorded in FIGS. 2A and 2B. The comparison of the CELx test results and the third party clinical reference is recorded in FIG. 2C.
The CReMS, microplate, reagents, and buffers used in Example 1 are the same as those employed in Example 2, except for the therapeutic agent tested. In Example 2, the therapeutic agent, paclitaxel, was tested. Paclitaxel was purchased from Selleck Chemicals (TX, USA).
Breast Cancer cells from Patients B1 and B2 were utilized and handled in the same manner as described in Example 1.
Between 6,000-12,000 cells in each well were seeded onto the impedance microplate containing 120 uL settling media with serum. Forty microliters of the drug paclitaxel were added to one set each of the B1 and B2 cells; another control set of B1 and B2 cells received no drug. The CReMS recording of physiologic change was maintained continuously from when the cells were first seeded on the microplate through complete cellular response, which was between 48-72 hours. The test was performed at 37° C., 5% CO2 and at 75% relative humidity.

[8] = tested on: MAPK signaling pathway activity of cell sample C54; test: CAS measurement after culture in fresh or non-fresh base media (Example 8); format: cell-based
Protocol: Many cell screening assays prescribe a simplified media-buffer that cells are placed in before and during the short time they are tested. The present invention with viable primary patient cells is performed with a base media used to maintain viable primary cell samples such that the cell population remains viable and retains its heterogeneity of individual cell types and a normal distribution of cells representing the different phases of the cell cycle during the complete test time of continuous measurement. […] A further aspect of the method includes replacing the base media with fresh base media within 72 hours of initiating contact with the perturbing or confirming agents.
The data highlights the importance of culturing the cells in fresh base media before a cell sample is contacted with a perturbing or confirming agent.

With `COc1cc2ncnc(Nc3ccc(F)c(Cl)c3)c2cc1OCCCN1CCOCC1` [Gefitinib] the “response in the CReMS testing” value [1] was “did not show a response”.

For `CS(=O)(=O)CCNCc1ccc(-c2ccc3ncnc(Nc4ccc(OCc5cccc(F)c5)c(Cl)c4)c3c2)o1` [Lapatinib], the “effect of the confirming agent on the CAS generated by the pathway factor” value (from here on “effect of the confirming agent”) [2] was “reduces”, the “effect of the confirming agent” value ([2]; listed as lapatinib) was “reduced” and the “CELx Pathway Shutdown test prediction of patient response” value ([3]; Patient B1) was “will respond”. The “CELx Pathway Shutdown test prediction of patient response” value ([3]; Patient B4) was “would respond”, the “responsiveness recorded by the third party clinical reference standard” value (“responsiveness recorded” for short) ([4]; Patient B1 (breast cancer)) was “responsive” and the “responsiveness recorded” value ([4]; Patient B4 (breast cancer)) was “responsive”. For the same compound, the “effect of the confirming agent” value [5] was “reduces” and the “effect of the confirming agent” value ([5]; listed as lapatinib) was “reduced”.

In the case of `CCOc1cc2ncc(C#N)c(Nc3ccc(OCc4ccccn4)c(Cl)c3)c2cc1NC(=O)/C=C/CN(C)C` [Neratinib], the “% Attenuation of NRG1 Signal” value ([6]; Patient R20) is reported as 104%, the “% Attenuation of NRG1 Signal” value ([6]; Patient R39) is reported as 107% and the “% Attenuation of NRG1 Signal” value ([6]; Patient R71) is reported as 100%. The “% Attenuation of NRG1 Signal” value ([6]; Patient R82) was 105%, the “% Attenuation of NRG1 Signal” value ([6]; Patient R160) was 118% and the “attenuation of the NRG1 and EGF driven activity, comparison in words” value [6] was “highest percentage attenuation”.

With `CC(=O)O[C@H]1C(=O)[C@@]2(C)[C@H]([C@H](OC(=O)c3ccccc3)[C@]3(O)C[C@H](OC(=O)[C@H](O)[C@@H](NC(=O)c4ccccc4)c4ccccc4)C(C)=C1C3(C)C)[C@]1(OC(C)=O)CO[C@@H]1C[C@@H]2O` [Paclitaxel] the “CELx Anti-Proliferative test prediction of patient response” value ([7]; Patient B1) was “will respond”, the “responsiveness, CReM output (cell index) compared to control cells” value ([7]; Patient B1 cells) was “immediate and continuous responsiveness” and the “CELx Anti-Proliferative test prediction of patient response” value ([7]; Patient B2) was “will respond”. For the same compound, the “time after which the CReM output reverses (test cells begin proliferating, no longer responsive)” value ([7]; Patient B2 cells) was “roughly 24 hours”, the “responsiveness, CReM output (cell index) compared to control cells” value ([7]; Patient B2 cells) was “initial responsiveness” and the “responsiveness recorded” value ([4]; Patient B1 (breast cancer)) was “responsive”. The “responsiveness recorded” value ([4]; Patient B2 (breast cancer)) was “responsive”.

With `C[C@]12CC[C@@H]3c4ccc(O)cc4C[C@@H](CCCCCCCCC[S+]([O-])CCCC(F)(F)C(F)(F)F)[C@H]3[C@@H]1CC[C@@H]2O` (stereo partly drawn) [fulvestrant] the “effect of the confirming agent” value [2] was “reversed”, the “effect of the confirming agent” value ([2]; listed as Fulvestrant) was “reduced” and the “effect of the confirming agent” value [5] was “reversed”. For the same compound, the “effect of the confirming agent” value ([5]; listed as Fulvestrant) was “reduced”.

In the case of “EGF: human epidermal growth factor, perturbing agent of HER1-HER2 receptor pairings”, the “signaling pathway activity (CAS) on perturbation” value ([8]; cell sample C54 cultured in fresh base media prior to contact) is reported as “significant MAPK signaling pathway activity”, the “signaling pathway activity (CAS) on perturbation” value ([8]; cell sample C54 cultured in non-fresh base media prior to perturbation) is reported as “no signaling pathway activity” and the “% HER2 Participation, ((CF-C) − (CCF-C))/(CF-C))*100” value ([6]; Patient R112) is reported as 25%. The “Measurand (HER2 signal), ~(CF-C) − (CCF-C)” value ([6]; Patient R112) was 103, the “Total Ligand Signal (CF-C)” value ([6]; Patient R112) was 398 and the “CAS (CCF), confirming factor + perturbing factor addition sample” value ([6]; Patient R112, HER2 participation confirming factor added before the perturbing ligand) was 337.

With Pertuzumab the “% Attenuation of NRG1 Signal” value ([6]; Patient R71) was 68%, the “% Attenuation of NRG1 Signal” value ([6]; Patient R160) was 95% and the “attenuation of the NRG1 and EGF driven activity, comparison in words” value [6] was “significant attenuation”. For the same compound, the “amount of pertuzumab inhibition of NRG1 driven activity, compared with SKBR3” value ([6]; non-overexpressed HER2 patient sample R39 versus overexpressed HER2 cell line SKBR3) was “greater”.
